# “Also recorded” adds a separate entry of the source.
# Assays:
# [1] = tested on: human HL-60 tumor cell xenografts; experiment: Subcutaneous HL-60 tumor xenograft model in SCID mice; type: in vivo
# Experimental: (§1) Subcutaneous tumor model—HL-60 human promyelocytic leukemia cells (5×10^6 cells in 0.1 mL) were subcutaneously inoculated into the right flank of female SCID mice. Mice were treated by intravenous injection into a lateral tail vein starting when tumors reached 100 mm^3 in size (400 mm^3 in large tumor model). Tumor size and mouse body weight were measured twice per week. Survival model—HL-60 cells (5×10^6 cells in 0.1 mL) were intravenously injected into the lateral tail vein of female SCID mice. Eleven days after tumor cell injection treatment was started. Mice were checked every day for moribund, tumor mass, or death. Body weight was measured twice per week.
# The efficacy of My9-6-DM1 in vivo was determined using SCID mice bearing human HL-60 tumor cell xenografts. HL-60 cells were injected subcutaneously and tumors were allowed to grow to an average size of 100 mm^3. Dosage is expressed as mg antibody in the conjugate, which corresponds to a DM1 dose of approximately 15 μg DM1 per mg of antibody. Tumor volume was measured as an indication of treatment efficacy and mouse body weight was monitored to indicate toxicity due to treatment.
# [2] = tested on: HL-60 cells injected intravenously; experiment: HL-60 cell mouse survival model; type: in vivo, SCID mice; conditions: treatment starting 11 days after cell injection
# Experimental: FIGS. 24A & B show anti-tumor efficacy of My9-6-DM1 compared with Gentuzumab ozogamicin and standard chemotherapy in an HL-60 survival model. HL-60 cells were intravenously injected into SCID mice. Indicated treatments were started 11 days following injection of cells. Treatments were i.v. daily ×5 except for Gentuzumab ozogamicin (Q4D×3).
# as §1
# While the efficacy of My9-6-DM1 in the tumor xenograft model is striking, it is also of interest to look at the activity of the conjugate in a mouse survival model where HL-60 cells are injected directly into a mouse tail vein. In this model, control mice die between 30 and 50 days after cell injection. […] However, even in this model, standard chemotherapy provided no significant survival enhancement (FIG. 24B).
# [3] = biological target: T1, CD33 on CD33-positive U-937 cells (Homo sapiens, UniProt P20138); experiment: Competition binding of 125I-labeled muMy9-6 to U-937 cells
# T1 construct: endogenous in cells; host or cells: U-937 human histiocytic lymphoma cell line (ATCC CRL-1953.2)
# Experimental: The My9-6 antibody has further been functionally characterized and shown to bind with high affinity to CD33 on the surface of CD33-positive U-937 cells (FIG. 1). ^125I-labeled My9-6 binds to U-937 cells and it is competed off the cells by unlabeled My9-6 and the previously characterized anti-CD33 antibody My9 (BioGenex, cat. no. 267M).
# To further ascertain its specificity for binding to the CD33 antigen, a competition binding experiment was performed between labeled muMy9-6 and the commercially available anti-CD33 antibody My9. The binding experiment was performed using the method described by Goldmacher et al. (1989, J. Cell. Physiol. 141, 222-234). Murine My9-6 antibody was radiolabeled with ^125I using the Iodo-gen technique (Fraker, P. J. and Speck, J. C., 1978, Biochem. Biophys. Res. Commun. 80, 849-857). A constant amount (3×10^−9 M) of ^125I-labeled muMy9-6 was mixed with increasing concentrations of non-radioactive antibody, either unlabeled muMy9-6 or unlabelled My9, and the mixtures were incubated with cells (1×10^6 cells per sample) at 4° C. for 30 min. […] The cell pellet was then removed by cutting the centrifuge tubes at the oil interface and was used to measure the cell-associated radioactivity on a gamma-counter (model RIAgamma 1274 from LKB). The cell-associated radioactivity measured was […] against the concentrations of the unlabelled, competing antibodies. […]
# large HL-60 tumors = experiment: Large HL-60 tumor xenograft model in SCID mice; type: in vivo; conditions: for toxicity of higher drug doses: not shown; for effect on tumor growth: standard chemotherapeutic agents, tumor volume >400 mm^3
# Experimental: as §1
# Tumors were allowed to grow to a tumor volume of >400 mm^3 prior to the initiation of treatment. In addition, a comparison of the activity of My9-6-DM1 with standard chemotherapeutic drugs was conducted. […]
# T1 sequence (P20138 18-364): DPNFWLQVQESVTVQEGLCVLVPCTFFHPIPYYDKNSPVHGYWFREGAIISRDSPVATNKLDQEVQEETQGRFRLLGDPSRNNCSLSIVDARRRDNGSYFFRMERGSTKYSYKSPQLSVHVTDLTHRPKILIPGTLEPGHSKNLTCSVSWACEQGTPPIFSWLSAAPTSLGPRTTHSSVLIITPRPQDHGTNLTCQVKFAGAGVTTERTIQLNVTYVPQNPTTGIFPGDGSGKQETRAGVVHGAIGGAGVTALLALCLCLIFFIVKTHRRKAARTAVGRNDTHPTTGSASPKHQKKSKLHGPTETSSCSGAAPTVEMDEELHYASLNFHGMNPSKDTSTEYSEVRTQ
compound,measurement,setting,value
"My9-6: murine anti-CD33 monoclonal antibody, IgG1 kappa, hybridoma ATCC PTA-4786",effect on HL-60 tumor growth compared to vehicle control,"[1]; antibody alone, dose not stated",no effect on HL-60 tumor growth
same,effect on tumor cell growth,"[1]; antibody alone, even at 50 mg/kg",no effect on tumor cell growth
same,effect on tumor growth,[1]; unconjugated antibody 23 mg/kg daily for 5 days,no affect on tumor growth
same,effect on survival,[2],modest increase in survival
same,competition binding curves against 125I-labeled muMy9-6,"[3]; 3×10^−9 M 125I-muMy9-6, U-937 cells, 4° C., 30 min",very similar competition binding curves
same,binding affinity / avidity for CD33,[3]; CD33-positive U-937 cells,very similar binding avidities; also recorded: high affinity
"COc1cc2cc(c1Cl)N(C)C(=O)C[C@H](OC(=O)[C@H](C)N(C)C(C)=O)[C@]1(C)O[C@H]1[C@H](C)[C@@H]1C[C@@](O)(NC(=O)O1)[C@H](OC)/C=C/C=C(\C)C2 [maytansine, reference compound]",mice that died two days after treatment,[1]; 350 μg/kg daily for 5 days,Three of 6
same,delay in tumor growth,"[1]; 350 μg/kg daily for 5 days, remaining 3 mice",approximately 10 days
same,effect on survival,[2],significant impact on mouse survival
same,mice that died shortly after the start of treatment,[2],2 of 8
CC(=O)[C@]1(O)Cc2c(O)c3c(c(O)c2[C@@H](O[C@H]2C[C@H](N)[C@H](O)[C@H](C)O2)C1)C(=O)c1ccccc1C3=O [idarubicin],toxicity of higher drug doses,large HL-60 tumors,profoundly toxic
same,effect on tumor growth,large HL-60 tumors,little effect on tumor growth
Nc1ccn([C@@H]2O[C@H](CO)[C@@H](O)[C@@H]2O)c(=O)n1 [Ara-C],toxicity of higher drug doses,large HL-60 tumors,profoundly toxic
same,effect on tumor growth,large HL-60 tumors,little effect on tumor growth
